Test results taken from patent US6423700B1, “17-halogenated 19-nor steroids, method and intermediates for preparing same, use as medicines and pharmaceutical compositions containing same” (Aventis Pharma S.A., priority 1998, dated 2002).
Where “and” joins values, the source holds several entries; their conditions need not be identical. Equal entries are not always repeated.

Legend:
[1] = tested on: MCF-7 human mammary cells; assay: Effect on the proliferation of mammary cells (MCF-7, determination of the DNA); format: cell-based; set-up: key: Agonist: the effect of the oestradiol at 10^−10M (cell growth in the presence of oestradiol less cell growth in the presence of the solvent) determines the 100% agonist activity; Inactive: molecules inducing an identical cell growth to that observed with the solvent alone are classified as “inactive”; Inhibitor: those inducing a lower cell growth to that observed with the solvent are classified as “inhibitor”; details: 7 days culture in steroid-free medium; compared with oestradiol at 10^−10M = 100% agonist activity
Method: Effect on the Proliferation of Mammary Cells The proliferative activity of the molecules is studied in comparison to that of oestradiol on MCF-7 human mammary cells in culture. […] Cells undergo this severance two days before the start of the test. After 7 days culture in the presence of the products to be studied, the cell proliferation is evaluated by determination of the DNA. In each test, the effect of the oestradiol at 10^−10M (cell growth in the presence of oestradiol less cell growth in the presence of the solvent) determines the 100% agonist activity. The activity of the molecules is evaluated in comparison to this internal control.

[2] = tested on: ovariectomized female rat; assay: Bone impact study in the ovariectomized female rat at the age of 3 months (tibia BMD, uterus weight, serum cholesterol); format: in vivo; details: OVX rat; for UTERUS Weight % / Cholesterol %: 4 weeks; for UTERUS Weight %: increase in % of uterus weight of OVX animals receiving solvent; for Cholesterol %: serum cholesterol change in % relative to OVX animals receiving solvent; for TIBIA BONE BMD %: OVX=0, SHAM=100
Method: Bone impact study of a product in the ovariectomized female rat at the age of 3 months The compounds are tested in order to determine their effect on the bone mass and on the formation and resorption activity in the model of the ovariectomized rat at the age of 3 months. The animals are treated in a preventive fashion. [table] 1—Product to be tested: Product of Example 1. vehicle(s): corn oil, 0.5% methylcellulose number of administrations: once/day; 5 days/week for 4 weeks administration route: oral route for the product 2—Reference product: 17β oestradiol is administered by subcutaneous route at a dose of 0.1 or 0.01 mg/kg/d in solution in a mixture of corn oil-benzyl alcohol (99:1, v/v) under a volume of 0.2 ml/kg. The study is carried out with female rats ovariectomized at the age of 3 months. The animals are kept in an air-conditioned room (temperature 20° C.±2° C.) and grouped by 4 into boxes. The animals receive, ad libitum, demineralized water and compressed foods (pellets: AO4CR-10 UAR). The 3 month old female rats weighing approximately 250 g are ovariectomized under anaesthesia with Imalgene 1000, at a dose of 100 mg/kg by intraperitoneal route (i.p.) and under a volume of 1 ml/kg. They also receive Nembutal (3 mg/kg i.p. under a volume of 0.3 ml/kg). The effects of the products are determined in a preventive treatment. They are administered immediately after the ovariectomy. Animals are distributed into groups of 8. Group 1: “SHAM” control rats receiving the vehicle or vehicles. Group 2: “OVX” control rats receiving the vehicle or vehicles. Groups X: “OVX” rats receiving respectively defined doses of the product or products to be tested. At the end of 4 weeks (duration of the study) the animals are decapitated by guillotine. The serums collected after centrifugation are preserved at −20° C. A lipidic balance will be established from the serous determinations of total cholesterol, of triglycerides and of phospholipids on a 500 μl aliquot of serum. Lowering of the serous cholesterol level is expressed in % relative to the level shown by the ovariectomized animals receiving only the solvent. The uteri are removed. The latter are weighed. The increase in weight is expressed in % of the weight of the uterus of ovariectomized animals receiving only the solvent. The bone mass (BMD or bone mineral density) is measured by biphotonic dual energy X-ray absorptiometry (DEXA). The measurements are carried out on bone excized and cleaned of all soft tissue. The BMD (bone mineral density) is measured on the whole bone as well as on the metaphyseal part at the level of the proximal extremity for the left tibia. This zone is defined as being the region which is richest in trabecular bone; and consequently, is the most sensitive to variations in bone volume and bone mineral density. The results are expressed in % according to the formula: […]

[3] = 0.3 mg/kg po, listed as Ex. 1, 0.3 mg/kg

Structure (SMILES): COc1ccc2c(c1)CC[C@@H]1[C@@H]2[C@@H](c2ccc(OCCN3CCCC3)cc2)C[C@]2(C)[C@H](F)CC[C@@H]12
- melting point: 132 °C

Structure (SMILES): C[C@]12C[C@H](c3ccc(OCCN4CCCCC4)cc3)[C@@H]3c4ccc(O)cc4CC[C@H]3[C@@H]1CC[C@H]2F.Cl [Example 2, 17 alpha-fluoro-11-beta-[4-[2-(1-piperidinyl)ethoxy]phenyl]-estra-1,3,5(10)-trien-3-ol hydrochloride]
- ACTIVITY (proliferative activity on MCF-7 cells) [1]: Inactive

Structure (SMILES): CC1CCN(CCOc2ccc([C@H]3C[C@]4(C)[C@H](F)CC[C@H]4[C@@H]4CCc5cc(O)ccc5[C@H]43)cc2)CC1.Cl
- melting point: 200 °C

Structure (SMILES): C[C@]12C[C@H](c3ccc(OCCN4CCCCC4)cc3)[C@@H]3c4ccc(O)cc4CC[C@H]3[C@@H]1CC=C2I.Cl
- melting point: 260 °C

Structure (SMILES): C[C@]12C[C@H](c3ccc(OCCN4CCCCC4)cc3)[C@@H]3c4ccc(O)cc4CC[C@H]3[C@@H]1CC[C@H]2F [Example 1, 17 alpha-fluoro-11 beta-[4-[2-(1-piperidinyl)ethoxy]phenyl]-estra-1,3,5(10)-trien-3-ol]
- UTERUS Weight % ([2]; 0.1 mg/kg po): 67%
- Cholesterol % ([2]; 0.1 mg/kg po): −49%
- TIBIA BONE BMD % ([2]; 0.1 mg/kg po, once/day 5 days/week 4 weeks): 57%
- UTERUS Weight % [2, 3]: 70% and 41%
- Cholesterol % [2, 3]: −59% and −51%
- TIBIA BONE BMD % ([2]; 0.3 mg/kg po, once/day 5 days/week 4 weeks, listed as Ex. 1, 0.3 mg/kg): 71% and 73%
- UTERUS Weight % ([2]; 1.0 mg/kg po): 93%
- Cholesterol % ([2]; 1.0 mg/kg po): −61%
- TIBIA BONE BMD % ([2]; 1.0 mg/kg po, once/day 5 days/week 4 weeks): 72%
- ACTIVITY (proliferative activity on MCF-7 cells) [1]: Inactive

Structure (SMILES): C[C@]12CC[C@@H]3c4ccc(O)cc4CC[C@H]3[C@@H]1CC[C@@H]2O [Oestradiol, 17β oestradiol, reference compound]
- TIBIA BONE BMD % ([2]; 0.01 mg/kg s.c., 4 weeks preventive): 95%
- UTERUS Weight % ([2]; 0.01 mg/kg s.c.): 317%
- Cholesterol % ([2]; 0.01 mg/kg s.c.): −16%
- TIBIA BONE BMD % ([2]; 0.1 mg/kg s.c., 4 weeks preventive): 139%
- UTERUS Weight % ([2]; 0.1 mg/kg s.c.): 220%
- Cholesterol % ([2]; 0.1 mg/kg s.c.): −3%
- ACTIVITY (proliferative activity on MCF-7 cells) [1]: Agonist
